≈ marks a conversion by molar mass, not a printed value. Marks after values point to notes of the source that are not given here. Numbered stars: 1 amine (or outer) side, 2 acyl side, 3 side chain; on linkers, the order of the positions; unused ones are H or OH. Bridge positions count the residues as written; N and C are the ends. Square brackets hold non-standard residues; d marks the D form. Peptide text beside a SMILES is read from it. * marks the point of attachment. NH(3-Cl-phenyl) = Clc1cccc(N*)c1; NH(2-ClPh) = Clc1ccccc1N*; Dab = NCC[C@H](N)C(=O)O; CO = O=C([*:1])[*:2]
Columns and labels:
[1] = Cell culture cytotoxicity assay (ATP bioluminescence, LLC-PK1); format: cell-based, rat; settings: read-out: EC50, rat kidney proximal tubule cell culture cytotoxicity assay
Experimental: (§1) Day 1: 1×10^5 to 2×10^5 cellswere inoculated (Cell line: LLC-PK1) per flask, containing 4 mL/T25 flask of medium DMEM-F12 (50/50) media supplemented with 10% FBS (Fetal Bovine Serum). The cells were then incubated at 37° C., 5% CO2, 80% RH.
(§2) Day 4: The cell cultures were examined to determine 80% confluency. To trypsinize of the 80% confluent flasks, 4 mL of DMEM-F12-10% FBS media was prepared per flask. The media was aspirated from the flask and 5 mL of Versene was added to rinse the flask. The Versene was aspirated and 2 mL of triple Express solution (trypsin solution) was added. The cells were incubated for 5 min at room temperature and examined via microscopy for the rounding of the cells and their detachment. To speed up the reaction, the flask can be incubated at 37° C. for 3 minutes. 4 mL of media (DMEM-F12-10%FBS) was added to stop the reaction. Using a 5 mL pipette, the completed reaction was pipetted up and down to ensure that the cells were properly detached from the flask and from each others. The cell number was counted using a hemocytometer slide. 100 μL of cell suspension was transferred to a tube and 100 μL of Trypan Blue was added. Inoculum for 96 well is 10,000 cells per well. For one 96 well plate, 26.3 μL×110 well=2893 μL total. 2.9 mL of cell suspension was mixed with 8.1 mL of media DMEM-F12-10% FBS and 100 μL was distributed to each well using a multichannel pipetter. The plate was then Incubated for 24 h at 37° C.
(§3) Day 5: DMEM-F12 (no FBS) medium was dispensed into tubes with the test article to achieve final concentrations of […]. The 96 well plate was taken off the incubator and media was removed from each well using multichannel pipetter. 80 μL of serially diluted compounds of Formula (I) was added to each well. Every set of concentration was done in triplicate. Media and positive controls were added to each plate and the plates were incubated for 24 hours at 37° C.
(§4) Day 6: The plates were taken from the incubator, the media was removed from each well, and 100 μL of fresh media DMEM-F12 (this is equivalent to a rinse and the media can be replaced with PBS) was added. The media is then removed and 80 μL of cell lysis solution is added. After 5 minutes, 80 μL of sterile filtered high quality water was added to each well. Using a white or black 96 well reaction plate, 80 μL of 25× diluted ATP mix reagent (Sigma Bioluminescent Somatic Cell Assay Kit [cat #FL-ASC]) was added into one column. 80 μL of diluted ATP standards (dilutions used: 250, 500, 1000, 2000 and 4000) was added and the plate was read immediately in the topcount with a 2 second read time. In another white or black 96 well reaction plate, 80 μL of 25× diluted ATP mix reagent (plate A) was added and 80 μL of lysis-water solution was transferred to each column of plate A. The plate was then read immediately in the topcount with a 2 second read time. This process was repeated for next consecutive plate and the EC50 for certain compounds of Formula I were calculated and provided in Table 4.

P. aeruginosa [2] = test: MIC, broth microdilution (Table 4); format: cell-based, Pseudomonas aeruginosa; settings: for MIC P. aeruginosa: Table 4
Experimental: (§5) MIC testing was performed according to Clinical and Laboratory Standards Institute (CLSI) M7-A7 (2006) broth microdilution methods. Unless otherwise indicated, MIC values are provided in units of micrograms per milliliter.
(§6) One day prior to testing, individual colonies were isolated by streaking onto rich, non-selective Tryptic Soy agar with 5% lysed sheeps blood (TSAB) with incubation at 35-37° C. for 18-24 hours.
(§7) Cultures were prepared by touching 3-5 colonies into 3 mL of Cation adjusted Mueller Hinton Broth (caMHB) in a 14 mL tube (CaMHB was prepared and sterilized according to manufacturer's specifications). Cultures were grown at 37° C. 200 rpm for approximately four hours prior to density adjustment for addition to the MIC assay.
(§8) OD600 of growing cultures was measured and adjusted to approximately 10^5 colony forming units per mL (CFU/mL) in caMHB for MIC inoculation (approximately OD600 0.001).
(§9) Diluted cultures were used to inoculate 50 μL per well in broth microdilution assays (final volume 100 μl per well; compounds were prepared in two-fold dilutions).
(§10) Plates were incubated 16-20 hrs at 37° C., with shaking at 200 rpm.
(§11) OD600 was determined for all wells. Growth was defined as OD600>0.1. MICs were defined as the lowest concentration producing no visible turbidity (OD600<0.1).

[3] = system: Rat kidney proximal tubule cells; test: Cell culture cytotoxicity assay (ATP bioluminescence, LLC-PK1); format: cell-based; settings: LLC-PK1, 24 hours, ATP readout
Experimental: as §1, §2, §3, §4

Enterobacter = test: MIC90, broth microdilution, panel of Gram negative clinical isolates; format: cell-based; settings: 20 strains; some strains multi-drug resistant
Experimental: (§12) To evaluate the potency and spectrum of compounds of Formula (I), (i.e., Compounds designated 5 and 6), a study was conducted that put together a panel of 455 Gram negative strains, which included multi-drug resistant clinical isolates selected from various surveillance programs. Table 3A lists the strains that were included in the study and the activity of Compound 5, Compound 6, and colistin (polymyxin E, abbreviated PME). Strains with acquired resistance to colistin and/or carbapenems and/or broad spectrum cephalosporins were pre-selected and included in all organism groups evaluated.
as §5, §6, §7, §8, §9, §10, §11

Acinetobacter spp = test: as above; format: cell-based; settings: 81 strains
Experimental: as §12, §5, §6, §7, §8, §9, §10, §11

Citrobacter spp. = test: as above; format: cell-based; settings: 20 strains; some strains multi-drug resistant
Experimental: as §12, §5, §6, §7, §8, §9, §10, §11

K. pneumonia = test: as above; format: cell-based, Klebsiella pneumoniae; settings: 81 strains; some strains multi-drug resistant
Experimental: as §12, §5, §6, §7, §8, §9, §10, §11

E. coli = test: as above; format: cell-based, Escherichia coli; settings: 80 strains; some strains multi-drug resistant
Experimental: as §12, §5, §6, §7, §8, §9, §10, §11

P. aeruginosa [4] = test: as above; format: cell-based, Pseudomonas aeruginosa; settings: for MIC90 P. aeruginosa: 100 strains
Experimental: as §12, §5, §6, §7, §8, §9, §10, §11

S. maltophilia = test: as above; format: cell-based, Stenotrophomonas maltophilia; settings: 25 strains
Experimental: as §12, §5, §6, §7, §8, §9, §10, §11

P. aeruginosa #44 = test: MIC, broth microdilution; format: cell-based, Pseudomonas aeruginosa; settings: Table 5; range of repeated tests
Experimental: as §5, §6, §7, §8, §9, §10, §11
(§13) P. aeruginosa #44 or K. pneumoniae #21 were grown in cation adjusted Mueller Hinton Broth (caMHB) (catalog #B12322; Fisher Scientific, Pittsburgh, Pa.) at 37° C. MIC testing was performed according to Clinical and Laboratory Standards Institute [CLSI, formerly National Committee for Clinical Laboratory Standards (NCCLS), Wayne, Pa.] guidelines for broth microdilution.
(§14) MIC testing was performed according to CLSI (formerly NCCLS) guidelines for broth microdilution.

[5] = system: Acinetobacter baumannii 1570; test: MIC, broth microdilution; format: cell-based; settings: Table 8; range of repeated tests
Experimental: as §5, §6, §7, §8, §9, §10, §11
as §13, with “A. baumannii #1570” for “P. aeruginosa #44 or K. pneumoniae #21”
as §14

patients = settings: human, in vivo; cited from earlier work

Compound | EC50 [1] [µg/mL] | activity against bacteria compared with polymyxin B (P. aeruginosa [2]) | MIC P. aeruginosa (P. aeruginosa [2]) [micrograms/ml] | EC50 Rat kidney proximal tubule cells [3] [micrograms/ml] | MIC90 Enterobacter (Enterobacter) | MIC90 Acinetobacter spp (Acinetobacter spp) [micrograms/mL] | MIC90 Citrobacter spp. (Citrobacter spp.) | MIC90 K. pneumonia (K. pneumonia) | MIC90 E. coli (E. coli) | MIC90 P. aeruginosa (P. aeruginosa [4]) [micrograms/mL] | decrease in activity against colistin susceptible P. aeruginosa (P. aeruginosa [4]; relative to colistin / Compound 5) | MIC90 S. maltophilia (S. maltophilia) [micrograms/mL] | MIC against P. aeruginosa #44 (P. aeruginosa #44) | MIC against A. baumannii #1570 [5] [micrograms/ml] | overall incidence of neurotoxicity or neuropathy (patients) [%]
CC(C)C[C@@H]1NC(=O)[C@@H](Cc2ccccc2)NC(=O)[C@H](CCN)NC(=O)[C@@H](NC(=O)[C@H](CCN)NC(=O)[C@@H](NC(=O)[C@H](CCN)NC(=O)Nc2cccc(Cl)c2)[C@@H](C)O)CCNC(=O)[C@H]([C@@H](C)O)NC(=O)[C@H](CCN)NC(=O)[C@H](CCN)NC1=O [Compound 4] ({NH(3-Cl-phenyl)-CO}-[Dab]T[Dab][Dab][Dab][dF]L[Dab][Dab]T; lactam 4-C) | 691 (≈ 568 µM) | as active or more active | 2 | – | – | – | – | – | – | – | – | – | – | – | –
CC[C@H](C)[C@@H]1NC(=O)[C@@H](Cc2ccccc2)NC(=O)[C@H](CCN)NC(=O)[C@@H](NC(=O)[C@H](CCN)NC(=O)[C@@H](NC(=O)[C@H](CCN)NC(=O)Nc2ccccc2Cl)[C@@H](C)O)CCNC(=O)[C@H]([C@@H](C)O)NC(=O)[C@H](CCN)NC(=O)[C@H](CCN)NC1=O [Compound 6] ({NH(2-ClPh)-CO}-[Dab]T[Dab][Dab][Dab][dF]I[Dab][Dab]T; lactam 4-C) | > 1000 | as active or more active | 1 | >1000 | >16 micrograms/mL | 2 | 1 micrograms/mL | 4 micrograms/mL | 4 micrograms/mL | 8 | approximately 4 fold | 16 | – | – | –
colistin [reference compound] | – | – | – | – | >64* micrograms/mL | 4 | 0.5* micrograms/mL | 4* micrograms/mL | 2* micrograms/mL | 2 | – | 16 | 2-4 micrograms/ml | 2 | 7.3
